Counter-ions that a name gives are not always drawn.
Legend:
α1 receptor [1] = test: antagonism of norepinephrine-induced contraction of isolated urethra smooth muscle; type: cell-based, rat; conditions: for pA2 for antagonism of norepinephrine-induced contraction, urethra: isolated rat urethra; for the intensity ratio of the contraction caused by inhibiting norepinephrine, urethra/aorta / the intensity ratio of the contraction caused by inhibiting norepinephrine, urethra/vas deferens: calculated by pA2 value
Experimental: (§1) The antagonism and antagonistic selectivity of α1 receptor of different isolated smooth muscle specimens treated with the compound having formula (I).
(§2) Methods: a 24-hour fasting rat was hit on the head to induce coma, and quickly dissected the abdominal cavity, its urethra, aorta and vas deferens were respectively taken out and recorded the contraction curve with instruments, then the different concentrations and volumes of norepinephrine were added to get noradrenalin's accumulation curve, rinsed immediately to return to baseline, then different concentrations of test drugs were added. Noradrenaline was added repeatedly after 5˜8 minute to obtain average contractile response curve of noradrenalin under different concentrations of antagonist, the contraction pD2 of noradrenaline on the urethra, aorta, vas deferens under different concentrations of samples for test was calculated, the pA2 value for antagonism of contraction caused by the samples against norepinephrine was obtain by regressing with the concentration of test samples and pD2.
Results: pA2 value for the contraction of the different organizations inhibition of smooth muscle specimens induced by the hydrochlorate of compound I and tamsulosin hydrochloride against norepinephrine is shown in Table 1. The intensity ratio of contraction inhibitive effect of urethra and aorta, urethra and vas deferens smooth muscle, caused by the sample against noradrenaline is disclosed in table 2, which is calculated by pA2 value.

α1 receptor [2] = test: antagonism of norepinephrine-induced contraction of isolated aorta smooth muscle; type: cell-based; conditions: isolated rat aorta
Experimental: as §1, §2
(§3) Results: pA2 value for the contraction of the different organizations inhibition of smooth muscle specimens induced by the hydrochlorate of compound I and tamsulosin hydrochloride against norepinephrine is shown in Table 1. […]

α1 receptor [3] = test: antagonism of norepinephrine-induced contraction of isolated vas deferens smooth muscle; type: cell-based; conditions: isolated rat vas deferens
Experimental: as §1, §2, §3

Row | Structure (SMILES) | pA2 for antagonism of norepinephrine-induced contraction, urethra (α1 receptor [1]) | the intensity ratio of the contraction caused by inhibiting norepinephrine, urethra/aorta (α1 receptor [1]) | the intensity ratio of the contraction caused by inhibiting norepinephrine, urethra/vas deferens (α1 receptor [1]) | pA2 value for the contraction caused by inhibiting norepinephrine, aorta (α1 receptor [2]) | pA2 value for the contraction caused by inhibiting norepinephrine, vas deferens (α1 receptor [3])
1 | COc1ccc(C[C@@H](C)NCCOc2ccccc2OCC(F)(F)F)cc1S(N)(=O)=O [the hydrochlorate of compound I, 5-[(2R)-[2-[2-[2-(2,2,2-trifluoroethoxy)phenoxy]ethyl]amino]propyl]-2-methoxybenzenesulfonamide] | 11.00 | 607.31 | 8.120 | 8.21 | 10.08
2 | CCOc1ccccc1OCCN[C@H](C)Cc1ccc(OC)c(S(N)(=O)=O)c1 [Tamsulosin hydrochloride] | 9.22 | 3.83 | 0.123 | 8.63 | 10.12

From patent publication US20100069668A1, “5-[(2R)-[2-[2-(2,2,2-TRIFLUOROETHOXY)PHENOXY]ETHYL]AMINO]PROPYL]-2-METHOXYBENZENESULFONAMIDE” (priority 2006, published 2010)
